The NIST ThermoML archive (doi:10.1016/j.fluid.2013.12.017)

Assay: molar heat capacity at constant pressure
Settings: 101 kPa, Liquid, Small sample (50 mg) DSC

CCC(N)(CO)CO [2-amino-2-ethyl-1,3-propanediol]
Settings	molar heat capacity at constant pressure [J/K/mol]
303.15 K	367.5
308.15 K	370.5
313.15 K	374.1
318.15 K	378
323.15 K	381.5
328.15 K	385.8
333.15 K	389.9
338.15 K	393.9
343.15 K	398.6
348.15 K	403.1
353.15 K	408.2
